Data from patent publication US4411908A, “Imidazoline derivatives as presynaptic α2 -adrenoreceptor antagonists” (priority 1981, dated 1983).
Counter-ions that a name gives are not always drawn. Like-named read-outs stand apart in the source and are kept apart here.

Assays:
[1] = tested on: presynaptic α-adrenoreceptor (vas deferens, pithed rat); experiment: Presynaptic α-adrenoreceptor antagonism in the pithed rat (reversal of clonidine block on vas deferens, i.v.); conditions: for i.v. dose of antagonist causing 50% reversal of clonidine block on vas deferens: Table 3, cumulative i.v. dosing, clonidine 100 μg/kg i.v., mean of a minimum of 4 rats
Protocol: The test drugs were injected intravenously in a cumulative dosing schedule and their abilities to reverse the inhibition of hypogastric nerve stimulation reflected their presynaptic antagonism.

[2] = target: T1, presynaptic α2-adrenoreceptor (rat vas deferens) (Rattus norvegicus, UniProt P22909); experiment: Presynaptic α-adrenoreceptor antagonism vs clonidine, isolated rat vas deferens (0.1 Hz stimulation); format: cell-based
T1 construct: on the rat vas deferens stimulated at a frequency of 0.1 Hz; from tissue; host or cells: isolated rat vas deferens
T1 sequence (P22909 1-465): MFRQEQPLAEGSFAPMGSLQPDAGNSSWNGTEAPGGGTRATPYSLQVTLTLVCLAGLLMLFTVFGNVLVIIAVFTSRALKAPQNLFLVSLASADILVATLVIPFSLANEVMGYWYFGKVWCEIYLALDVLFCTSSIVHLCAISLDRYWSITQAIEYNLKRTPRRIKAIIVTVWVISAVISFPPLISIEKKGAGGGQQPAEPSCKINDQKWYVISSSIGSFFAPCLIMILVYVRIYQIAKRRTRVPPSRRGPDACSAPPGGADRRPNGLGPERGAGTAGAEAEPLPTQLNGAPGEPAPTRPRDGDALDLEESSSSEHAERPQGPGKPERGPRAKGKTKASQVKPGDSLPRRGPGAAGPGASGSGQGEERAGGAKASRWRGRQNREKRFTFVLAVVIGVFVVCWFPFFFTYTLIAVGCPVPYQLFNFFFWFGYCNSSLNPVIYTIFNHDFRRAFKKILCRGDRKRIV

[3] = target: T2, postsynaptic α-adrenoreceptor (rat anococcygeus muscle) (Rattus norvegicus, UniProt P43140); experiment: Postsynaptic α-adrenoreceptor antagonism vs noradrenaline contractions, isolated rat anococcygeus muscle; format: cell-based
T2 construct: the rat anococcygeus muscle is used to establish postsynaptic α-adrenoreceptor activity; from tissue; host or cells: isolated rat anococcygeus muscle
T2 sequence (P43140 1-466): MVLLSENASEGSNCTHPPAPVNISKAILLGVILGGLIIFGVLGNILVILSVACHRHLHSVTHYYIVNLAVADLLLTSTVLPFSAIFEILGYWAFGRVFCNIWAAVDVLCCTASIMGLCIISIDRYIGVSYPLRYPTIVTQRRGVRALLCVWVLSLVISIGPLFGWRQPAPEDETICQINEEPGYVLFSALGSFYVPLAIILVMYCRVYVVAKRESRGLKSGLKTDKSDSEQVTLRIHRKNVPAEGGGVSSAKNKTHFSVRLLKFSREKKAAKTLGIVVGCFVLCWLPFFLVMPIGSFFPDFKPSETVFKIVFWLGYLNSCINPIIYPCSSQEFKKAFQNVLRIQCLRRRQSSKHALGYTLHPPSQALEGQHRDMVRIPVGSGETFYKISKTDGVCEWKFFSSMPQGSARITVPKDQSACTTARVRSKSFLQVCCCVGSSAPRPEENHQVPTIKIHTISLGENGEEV
Excerpt: This in vitro model is particularly useful as an initial screen for studying presynaptic activity in isolation since the physiological nature of the vas deferens tissue is such that the postsynaptic receptors located therein are particularly inaccessible to exogenous agents. In consequence an alternative tissue, the rat anococcygeus muscle is used to establish postsynaptic α-adrenoreceptor activity. Antagonism of noradrenaline contractions is used to determine pA2 values at postsynaptic α-adrenoreceptors.

[4] = tested on: postsynaptic α-adrenoreceptor (pithed rat); experiment: Postsynaptic α-adrenoreceptor agonist activity in the pithed rat (diastolic blood pressure); conditions: for i.v. dose causing 50 mmHg increase in diastolic blood pressure: Table 5, naive pithed rats
Protocol: In vivo presynaptic α-adrenoreceptor antagonist activity was determined using the methods outlined in section 2.

[5] = target: T3, postsynaptic α-adrenoreceptor (anococcygeus muscle) (Rattus norvegicus, UniProt P43140); experiment: Postsynaptic α-adrenoreceptor agonist activity, isolated anococcygeus muscle; format: cell-based; conditions: Table 4; negative log of molar concentration giving 50% maximum contraction; mean of a minimum of 3 experiments; read-out: Postsynaptic agonism pD2 (anococcygeus) (converted)
T3 construct: compound giving 50% maximum contraction in this instance, of the anococcygeus muscle; from tissue; host or cells: isolated anococcygeus muscle (rat)
T3 sequence (P43140 1-466): T2 sequence (P43140 1-466)

In the case of `Clc1ccc2c(c1)CC(C1=NCCN1)O2` (stereo not drawn) [Example 5, 2-[2-(5-chloro-2,3-dihydrobenzofuranyl)]-2-imidazoline hydrochloride], the “i.v. dose of antagonist causing 50% reversal of clonidine block on vas deferens” value [1] is reported as 0.102 mg/kg, the “relative potency against in vivo presynaptic α-adrenoreceptor stimulant effects of clonidine” value ([1]; compound of Example 5 compared with phentolamine) is reported as “approximately equipotent” and the “potency relative to yohimbine in pithed rats” value ([1]; vs yohimbine, i.v. (Table 3)) is reported as “approximately 8 times”. It also gave a Kb [2] of 0.00631 µM, a Pre/post synaptic ratio ([2]; antagonism vs clonidine (rat vas deferens) to antagonism vs noradrenaline (rat anococcygeus)) of 100 and a Kb ([3]; Table 2, isolated rat anococcygeus, mean of a minimum of 5 experiments, read-out: Postsynaptic antagonism pA2 vs Noradrenaline (anococcygeus) (converted)) of 0.631 µM.
For `Cc1ccc(N(CC2=NCCN2)c2cccc(O)c2)cc1` [Phentolamine mesylate, reference compound], the “i.v. dose of antagonist causing 50% reversal of clonidine block on vas deferens” value [1] was 0.12 mg/kg.
With `CNC[C@H](O)c1cccc(O)c1` [Phenylephrine, reference compound] the “i.v. dose causing 50 mmHg increase in diastolic blood pressure” value (from here on “i.v. dose causing 50 mmHg increase”) [4] was 0.030 mg/kg.
With `c1ccc2c(c1)CC(C1=NCCN1)O2` (stereo not drawn) [Example 6, 2-[2-(2,3-dihydrobenzofuranyl)]-2-imidazoline hydrochloride] the “i.v. dose causing 50 mmHg increase” value [4] was 0.020 mg/kg, the “potency as postsynaptic α-adrenoreceptor agonist relative to phenylephrine” value ([4]; vs phenylephrine, conclusion of section 4) was “slightly more potent than phenylephrine” and the “i.v. dose causing 50% reversal of clonidine block on vas deferens” value ([1]; Table 5) was 0.030 mg/kg. The EC50 [5] was 0.501 µM, the Kb [2] was 0.00316 µM and the “presynaptic α-adrenoreceptor antagonist properties” value ([2]; qualitative, b182: in both isolated tissues and intact animals) was “displays presynaptic α-adrenoreceptor antagonist properties”. For the same molecule, the “potency as presynaptic α2 antagonist relative to the analogous dehydro compound” value ([2]; vs dehydro compound (Compound A), isolated vas deferens) was “more than 200 times”.
With `COC(=O)[C@@H]1[C@H]2C[C@H]3c4[nH]c5ccccc5c4CCN3C[C@@H]2CC[C@@H]1O` [Yohimbine HCl, reference compound] the “i.v. dose of antagonist causing 50% reversal of clonidine block on vas deferens” value [1] was 0.86 mg/kg.
With `CN1CCN2c3ccccc3Cc3ccccc3C2C1` (stereo not drawn) [Mianserin HCl, reference compound] the “i.v. dose of antagonist causing 50% reversal of clonidine block on vas deferens” value [1] was > 4.4 mg/kg.
With `c1ccc2oc(C3=NCCN3)cc2c1` [Compound A, 2-(2-benzofuranyl)-2-imidazoline, reference compound] the Kb ([2]; Table 4, isolated rat vas deferens, mean of a minimum of 3 experiments) was 0.832 µM and the Kb ([3]; Table 4, rat anococcygeus muscle, read-out: postsynaptic antagonist pA2 (rat anococcygeus muscle) (converted)) was 5.75 µM.
For `CN1CCN2c3ccccc3Cc3ccccc3C2C1` (stereo not drawn) [Mianserin, reference compound], the “maximum reversal of the inhibitory effects of clonidine on hypogastric nerve stimulation” value ([1]; cumulative intravenous dose of 4.4 mg/kg) was 36%.
In the case of `Clc1cccc(Cl)c1N=C1NCCN1` [Clonidine, reference compound], the “i.v. dose causing 50 mmHg increase” value [4] is reported as 0.003 mg/kg.
